Legend:
[1] = target: Cyclin-dependent kinase 4/cyclin D (Homo sapiens, UniProt P11802); assay: Inhibition of Cyclin-dependent kinase 4-cyclin D; assay type: protein-complex assay
[2] = test system: HCT-116; assay: Inhibition of HCT116 human colon carcinoma cell proliferation; assay type: functional, cell-based
[3] = target: Cyclin-dependent kinase 2/cyclin A (Homo sapiens, UniProt P24941); assay: Inhibition of Cyclin-dependent kinase 2-cyclin A; assay type: protein-complex assay
[4] = target: Cyclin-dependent kinase 1/cyclin B (Homo sapiens, UniProt P06493); assay: Inhibition of Cyclin-dependent kinase 1-cyclin B; assay type: protein-complex assay
[5] = target: Fibroblast growth factor receptor (Homo sapiens, UniProt P22607+P11362+P22455+P21802); assay: Inhibition of Fibroblast growth factor receptor (FGFr); assay type: protein assay
[6] = target: Cyclin-dependent kinase 2/cyclin E (Homo sapiens, UniProt P24941); assay: Inhibition of Cyclin-dependent kinase 2-cyclin E; assay type: protein-complex assay
[7] = target: Proto-oncogene tyrosine-protein kinase Src (Homo sapiens, UniProt P12931); assay: Inhibition of c-Src tyrosine kinase
Chain of Proto-oncogene tyrosine-protein kinase Src (P12931 2-536 limits assumed): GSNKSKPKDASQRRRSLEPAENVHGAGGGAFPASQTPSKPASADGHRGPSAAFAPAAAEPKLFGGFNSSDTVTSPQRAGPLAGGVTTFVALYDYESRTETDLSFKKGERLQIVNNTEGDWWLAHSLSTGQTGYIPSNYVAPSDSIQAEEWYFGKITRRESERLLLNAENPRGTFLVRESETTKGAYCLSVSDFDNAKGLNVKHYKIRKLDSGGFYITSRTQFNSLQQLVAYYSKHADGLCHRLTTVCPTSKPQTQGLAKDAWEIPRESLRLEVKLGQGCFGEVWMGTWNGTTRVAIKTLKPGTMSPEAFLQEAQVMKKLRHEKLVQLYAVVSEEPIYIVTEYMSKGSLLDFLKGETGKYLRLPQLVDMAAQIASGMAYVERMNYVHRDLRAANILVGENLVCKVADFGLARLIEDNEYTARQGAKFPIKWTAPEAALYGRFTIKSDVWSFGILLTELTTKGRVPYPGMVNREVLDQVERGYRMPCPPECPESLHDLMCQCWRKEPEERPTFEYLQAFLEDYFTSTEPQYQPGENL

Compound	IC50 [1] [nM]	other results
CCn1c(=O)ccc2cnc(Nc3ccc(O)c(OC)c3)nc21	1820	
O=c1ccc2cnc(Nc3ccc(N4CCC(CCCO)CC4)cc3)nc2n1C1CC2CCC1C2 (stereo not drawn)	8	IC50 [2]: 213 nM; IC50 [3]: 209 nM; IC50 [4]: > 40000 nM; IC50 [5]: 8620 nM; IC50 [6]: 165 nM
CCOCCn1c(=O)ccc2cnc(Nc3ccccc3)nc21	7800	
CCN(CC)c1ccc(Nc2ncc3ccc(=O)n(CC)c3n2)cc1	1400	
CCn1c(=O)ccc2cnc(Nc3ccc(-n4cccc4)cc3)nc21	2750	
CCCn1c(=O)ccc2cnc(Nc3ccccc3)nc21		IC50 [5]: 6600 nM
CCn1c(=O)ccc2cnc(Nc3ccc(OC)c(OC)c3)nc21	4080	
CN1CCN(c2ccc(Nc3ncc4ccc(=O)n(C5CCCCC5)c4n3)cc2)CC1	4	IC50 [5]: 51 nM; IC50 [6]: 20 nM
COCCn1c(=O)ccc2cnc(Nc3ccccc3)nc21	2860	
CCN(CC)CCOc1ccc(Nc2ncc3ccc(=O)n(C4CCCCCC4)c3n2)cc1	4	
COCn1c(=O)ccc2cnc(Nc3ccccc3)nc21	4150	
CCn1c(=O)ccc2cnc(N(C)c3ccccc3)nc21	> 40000	
CCn1c(=O)ccc2cnc(Nc3ccc(O)cc3)nc21	585	
CCn1c(=O)ccc2cnc(NC(C)C)nc21	4320	
CCN(CC)CCOc1ccc(Nc2ncc3ccc(=O)n(C4CCCC4)c3n2)cc1	0.7	
CCn1c(=O)ccc2cnc(Nc3ccccc3)nc21	620	IC50 [7]: 21000 nM; IC50 [5]: 3295 nM
CC(C)n1c(=O)ccc2cnc(Nc3ccc(N4CCN(C)CC4)cc3)nc21		IC50 [5]: 70 nM
COC(=O)Cn1c(=O)ccc2cnc(Nc3ccccc3)nc21	31000	
CN1CCN(c2ccc(Nc3ncc4ccc(=O)n(-c5ccccc5)c4n3)cc2)CC1	175	
CN1CCN(c2ccc(Nc3ncc4ccc(=O)n(CC(O)CO)c4n3)cc2)CC1 (stereo not drawn)	1650	
CN1CCN(c2ccc(Nc3ncc4ccc(=O)n(C5CC5)c4n3)cc2)CC1	140	
CN1CCN(c2ccc(Nc3ncc4ccc(=O)n(CCOCc5ccccc5)c4n3)cc2)CC1	2100	

Compound	IC50 [1] [nM]	other results
CCn1c(=O)ccc2cnc(Nc3cccc(OC(F)(F)C(F)F)c3)nc21		IC50 [5]: 44200 nM
CCn1c(=O)ccc2cnc(Nc3ccc(N4CCC(CCCO)CC4)cc3)nc21	900	
CN1CCN(c2ccc(Nc3ncc4ccc(=O)n(C5CC6CCC5C6)c4n3)cc2)CC1 (stereo not drawn)	6	
CCn1c(=O)ccc2cnc(Nc3ccc(N4CCCCC4)cc3)nc21	300	
CCn1c(=O)ccc2cnc(Nc3ccc(OCCN(C)C)cc3)nc21	330	
CCn1c(=O)ccc2cnc(Nc3ccc(OCCOC)cc3)nc21	2330	
CCn1c(=O)ccc2cnc(Nc3cccc(OC)c3)nc21	> 40000	
O=c1ccc2cnc(Nc3ccccc3)nc2n1CC1CCCCC1	13500	
CCC(C)n1c(=O)ccc2cnc(Nc3ccccc3)nc21 (stereo not drawn)	190	
CC(C)n1c(=O)ccc2cnc(Nc3ccccc3)nc21	145	
O=c1ccc2cnc(Nc3ccc(N4CCC(CCCO)CC4)cc3)nc2n1C1CCCC1	34	
CC(C)Cn1c(=O)ccc2cnc(Nc3ccccc3)nc21	297	
CCN(CC)CCOc1ccc(Nc2ncc3ccc(=O)n(C4CC5CCC4C5)c3n2)cc1 (stereo not drawn)	450	
CCCCn1c(=O)ccc2cnc(Nc3ccccc3)nc21		IC50 [4]: 2000 nM; IC50 [5]: 5290 nM
CCn1c(=O)ccc2cnc(Nc3ccncc3)nc21	1170	
CN1CCN(c2ccc(Nc3ncc4ccc(=O)n(C5CCCC5)c4n3)cc2)CC1	9	
CCN(CC)CCOc1ccc(Nc2ncc3ccc(=O)n(C4CCCCC4)c3n2)cc1	11	
O=c1ccc2cnc(Nc3ccccc3)nc2n1-c1ccccc1	1670	
CC(C)CCn1c(=O)ccc2cnc(Nc3ccccc3)nc21	159	
CCn1c(=O)ccc2cnc(NCc3ccccc3)nc21	> 40000	
CC(C)CCn1c(=O)ccc2cnc(Nc3ccc(N4CCN(C)CC4)cc3)nc21	13	

— ChEMBL document CHEMBL1133535, “Pyrido[2,3-d]pyrimidin-7-one inhibitors of cyclin-dependent kinases” (J Med Chem, 2000)
